From patent US5855885A, “Isolation and production of catalytic antibodies using phage technology” (priority 1994, dated 1999)

Legend:
[1] = test system: mouse anti-RT3 scFv clone 64 (PCR pattern A); assay: competitive inhibition ELISA, scFv binding to RT3-BSA; conditions: 100 uM competitor, preincubated 1 hour at room temperature; ELISA signal normalized to no inhibitor (FIG. 8)
Experimental: (§1) The clones selected for analysis and their corresponding PCR pattern (see Table 1, Example 4.3) were: 50 (PCR B), 64 (PCR A), 68 (PCR D), 71 (PCR E), 80 (PCR C), 84 (PCR A), 95 (PCR I), 96 (PCR A), and 97 (PCR A). Soluble scFv was purified from 50 ml cultures of each clone using the IMAC protocol described in Example 4.1, except bound antibody was eluted with 50 mM EDTA, 0.5M NaCl. The scFv concentration for each clone was estimated from silver stained SDS polyacrylamide gels by running a portion of the eluted protein on a gel containing appropriate scFv concentration standards. The scFv protein was diluted to 4 ug/ml and then serially diluted 1:2 across 11 wells of RT3-BSA coated ELISA plate. The concentration of scFv giving 50% of the maximum ELISA signal was determined from the titration. This concentration of scFv was used for a subsequent competitive inhibition assay described below.
(§2) A competitive inhibition ELISA assay was performed by incubating scFV (at a concentration as determined by titration above) with 100 uM of each of the following compounds: RT3 hapten (Compound 7, FIG. 1), left hand portion of RT3 hapten (designated RT3A, Compound 8, FIG. 2), right hand portion of RT3 hapten (designated RT3B, Compound 12, FIG. 3), The left and right hand portions of the expected products from the esteriolytic cleavage of substrate (Compound 15, FIG. 4) designated Product A (Mesitylacetic acid, FIG. 4) and Product B (Compound 13, FIG. 4). The scFv was preincubated with the inhibitor compound in tubes at room temperature for 1 hour prior to addition to RT3-BSA coated ELISA wells. The […] readings have been normalized to a value of 1, which represents the ELISA signal seen for the corresponding scFv in the absence of added competitive inhibitor.

[2] = test system: mouse anti-RT3 scFv clone 96 (PCR pattern A); assay: as above; conditions: 100 uM competitor, preincubated 1 hour at room temperature; ELISA signal normalized to no inhibitor (FIG. 8)
Experimental: as §1, §2

[3] = test system: mouse anti-RT3 scFv clone 50 (PCR pattern B); assay: as above; conditions: 100 uM competitor, preincubated 1 hour at room temperature; ELISA signal normalized to no inhibitor (FIG. 8)
Experimental: as §1, §2

[4] = test system: mouse anti-RT3 scFv clone 97 (PCR pattern A); assay: as above; conditions: 100 uM competitor, preincubated 1 hour at room temperature; ELISA signal normalized to no inhibitor (FIG. 8)
Experimental: as §1, §2

[5] = test system: mouse anti-RT3 scFv clone 84 (PCR pattern A); assay: as above; conditions: 100 uM competitor, preincubated 1 hour at room temperature; ELISA signal normalized to no inhibitor (FIG. 8)
Experimental: as §1, §2

[6] = test system: mouse anti-RT3 scFv clone 80 (PCR pattern C); assay: as above; conditions: 100 uM competitor, preincubated 1 hour at room temperature; ELISA signal normalized to no inhibitor (FIG. 8)
Experimental: as §1, §2

[7] = test system: mouse RT3 phage antibody scFv clone 68 (PCR pattern D); assay: as above; conditions: 100 uM competitor, preincubated 1 hour at room temperature; ELISA signal normalized to no inhibitor (FIG. 8); clone cross-reacts with BSA
Experimental: as §1, §2

[8] = test system: mouse RT3 phage antibody scFv clone 71 (PCR pattern E); assay: as above; conditions: 100 uM competitor, preincubated 1 hour at room temperature; ELISA signal normalized to no inhibitor (FIG. 8); clone cross-reacts with BSA
Experimental: as §1, §2

[9] = test system: mouse anti-RT3 scFv clone 95 (PCR pattern I); assay: as above; conditions: 100 uM competitor, preincubated 1 hour at room temperature; ELISA signal normalized to no inhibitor (FIG. 8)
Experimental: as §1, §2

[10] = test system: catalytic mouse anti-RT3 scFv clone 18; assay: catalytic assay (HPLC), hydrolysis of RT3 substrate by scFv; assay type: biochemical
Experimental: (§3) To further examine the scFv fragments for catalytic activity, the potentially-catalytic proteins identified in the early screen described above were individually grown and purified. Purification of the scFv was acheived as described in Example 6.1 using either IMAC or affinity chromotagraphy on anti-Myc-Protein A agarose. Assays were performed in the same buffer systems and pH values as in the early screen but the antibodies were tested individually and they were not immobilized but free in solution.
(§4) From these secondary assays, two scFv molecules, designated 18 and 83, catalytic activity was found. Clone 18 appeared to be active at pH 9.0 but not at pH 7.0 while clone 83 appeared to be active at pH 7.0 but not at pH 9.0 or 5.0. […] These two clones were selected as candidates for large scale purifcation of scFv as described below. The results of these assays are presented in Example 6.4.
For clone 18 a typical catalytic assay was set up as follows: 50 μl of scFv was added to 145 μl of RT3 substrate (Compound 15, FIG. 4) and 5 μl of water or for some assays 5 μl of RT3 hapten. A blank consisting of 50 μl of water and […] of RT3 substrate was set up to monitor the background hydrolysis of the RT3 substrate. The reaction was allowed to proceed for 6 hours after which samples were frozen at -20° C. to stop the reaction. Samples were analyzed by HPLC as described in example 5.1. […]

[11] = test system: catalytic mouse anti-RT3 scFv clone 83; assay: as above; assay type: biochemical
Experimental: as §3, §4
Assay of IMAC or HIC purified scFv from clone 83 was done in a similar manner as described for clone 18 with the following exceptions. Substrate was buffered in 25 mM HEPES, pH 7.0, 140 mM NaCl and 0.01% NaN3. Due to the lower background hydrolysis of RT3 substrate at neutral pH, reactions were typically run for 24 hours. A blank was also analyzed and gives a profile similar to the that in FIG. 17B (data not shown).

| Structure (SMILES) | inhibition of scFv binding to RT3-BSA [1] | inhibition of scFv binding to RT3-BSA [2] | inhibition of scFv binding to RT3-BSA [3] | inhibition of scFv binding to RT3-BSA [4] | inhibition of scFv binding to RT3-BSA [5] | inhibition of scFv binding to RT3-BSA [6] | inhibition of scFv binding to RT3-BSA [7] | inhibition of scFv binding to RT3-BSA [8] | inhibition of scFv binding to RT3-BSA [9] | catalysis in the presence of RT3 hapten ([10]; IMAC pure scFv, 50 uM RT3 substrate, pH 9.0, 6 hours, 5 μl RT3 hapten added (concentration not given), FIG. 15B) | inhibition of catalytic activity ([10]; secondary screening, pH 9.0, 10 μM antibody, 40 μM substrate, 30 μM hapten) | catalysis in the presence of RT3 hapten ([11]; IMAC pure scFv, RT3 substrate, pH 7.0, 24 hours, RT3 hapten added (concentration not given), FIG. 17B) | inhibition of catalytic activity ([11]; secondary screening, pH 7.0, 10 μM antibody, 40 μM substrate, 30 μM hapten) |
| --- | --- | --- | --- | --- | --- | --- | --- | --- | --- | --- | --- | --- | --- |
| COP(=O)(O)Cc1c(C)cc(C)cc1C [RT3A] | binding inhibition | binding inhibition | binding inhibition | binding inhibition | binding inhibition | – | – | – | – | – | – | – | – |
| Cc1cc(C)c(CP(=O)(O)Oc2ccc(CC(=O)O)cc2)c(C)c1 [RT3 hapten, 4-(carboxymethyl) phenyl-(2,4,6-trimethylphenyl)-methyl phosphonate] | inhibited | inhibited | inhibited | inhibited | inhibited | inhibited | did not show inhibition | did not show inhibition | inhibited | completely abrogated | significantly inhibited | completely abrogated | significantly inhibited |
| Cc1cc(C)c(CC(=O)O)c(C)c1 [Product A, Mesitylacetic acid, reference compound] | to a lesser extent | to a lesser extent | – | – | – | – | – | – | – | – | – | – | – |
| NC(=O)Cc1ccc(O)cc1 [Product B, 4-Hydroxyphenylacetamide] | No inhibition | No inhibition | No inhibition | No inhibition | No inhibition | No inhibition | No inhibition | No inhibition | No inhibition | – | – | – | – |
